{"source": "paper PMC8609999", "about": "“A Phase I trial of talazoparib in patients with advanced hematologic malignancies” (International Journal of Hematologic Oncology, 2021)", "origin": "cited, not measured here", "tested_on": "CLL or MCL patients", "design": "method as in PMID 28643365", "settings": "not statistically significant; cited from earlier work"}
{"smiles": "O=C(c1cc(Cc2n[nH]c(=O)c3ccccc23)ccc1F)N1CCN(C(=O)C2CC2)CC1", "note": "[olaparib]", "values": [{"measurement": "Overall survival in patients with ATM mutations versus those without", "value": "trend towards improved overall survival"}]}
